Blank lines part the entries; values can stand above or below the compound they belong to.
Experiments:
CEM-SS = assay: Concentration of compound required to 50% growth inhibition of CEM-SS cells
[1] = system: Human immunodeficiency virus 1; assay: Anti-HIV-1 activity against syncytial plaque formation; format: functional, organism-based
[2] = system: Human immunodeficiency virus 1; assay: Anti-HIV-1 activity against syncytial plaque formation at a conc. of 0.06 uM; format: functional
U1 [3] = assay: (§1) inhibition of p24 core antigen synthesis in U1 cells; format: functional, Homo sapiens; design: scale not given: the % may be the effect or the level left
U1 [4] = assay: (§2) inhibition of HIV-1 induced RT production in U1 cells; format: functional, Homo sapiens; design: scale not given: the % may be the effect or the level left
[5] = system: Human immunodeficiency virus 1; assay: Anti-HIV-1 activity against syncytial plaque formation at a conc. of 0.5 uM; format: functional
[6] = system: Human immunodeficiency virus 1; assay: Anti-HIV-1 activity against syncytial plaque formation at a conc. of 1 uM; format: functional
[7] = system: Human immunodeficiency virus 1; assay: Anti-HIV-1 activity against syncytial plaque formation at a conc. of 0.12 uM; format: functional
[8] = system: Human immunodeficiency virus 1; assay: Anti-HIV-1 activity against syncytial plaque formation at a conc. of 0.03 uM; format: functional
U1 [9] = assay: (§3) inhibition of infectious virus production in U1 cells; format: functional, Homo sapiens; design: scale not given: the % may be the effect or the level left
[10] = system: Human immunodeficiency virus 1; assay: Anti-HIV-1 activity against syncytial plaque formation at a conc. of 0.25 uM; format: functional
[11] = system: Human immunodeficiency virus 1; assay: Anti-HIV-1 activity against syncytial plaque formation at a conc. of 0.0015 uM; format: functional
[12] = system: Human immunodeficiency virus 1; assay: Anti-HIV-1 activity against syncytial plaque formation at a conc. of 0.0007 uM; format: functional
[13] = system: Human immunodeficiency virus 1; assay: Anti-HIV-1 activity against syncytial plaque formation at a conc. of 0.006 uM; format: functional
[14] = system: Human immunodeficiency virus 1; assay: Anti-HIV-1 activity against syncytial plaque formation at a conc. of 0.003 uM; format: functional
U1 [15] = assay: as §2; format: functional, Homo sapiens
[16] = system: Human immunodeficiency virus 1; assay: Anti-HIV-1 activity against syncytial plaque formation at a conc. of 0.0003 uM; format: functional
[17] = system: Human immunodeficiency virus 1; assay: Anti-HIV-1 activity against syncytial plaque formation at a conc. of 0.012 uM; format: functional
U1 [18] = assay: as §1; format: functional, Homo sapiens
U1 [19] = assay: as §3; format: functional, Homo sapiens

IC50 [1]: > 100 µM
SMILES: CCCCCCCCCCCCCCCCCC(=O)NCC(COP(=O)(O)O)OCC (stereo not given)
IC50 (CEM-SS): > 100 µM

IC50 [1]: 0.11 µM
SMILES: CCCCCCCCCCCCCCCCCC(=O)[N-]CC(COP(=O)([O-])OCC[N+](C)(C)C)OCC.[Na+] (stereo not given)
inhibition at 0.06 µM [2]: 34% | Control (U1 [3]): 74% | Control (U1 [4]): 147% | inhibition at 0.5 µM [5]: 74% | IC50 (CEM-SS): 14.3 µM | inhibition at 1 µM [6]: 89% | inhibition at 0.12 µM [7]: 49% | inhibition at 0.03 µM [8]: 14% | Control (U1 [9]): 33% | inhibition at 0.25 µM [10]: 60%

IC50 [1]: 0.6 µM
SMILES: CCCCCCCCCCCCCCCCSCC(COP(=O)([O-])OCC[N+](C)(C)C)OCC (stereo not given)
IC50 (CEM-SS): 4.1 µM

IC50 [1]: > 100 µM
SMILES: CCCCCCCCCCCCCCCCCC(=O)NCC(CO)OCC (stereo not given)
IC50 (CEM-SS): > 100 µM

IC50 [1]: 0.03 µM
SMILES: CCCCCCCCCCCCCCCCCC(=O)NCC(COP(=O)([O-])OC[C@H]1O[C@@H](n2cc(C)c(=O)[nH]c2=O)C[C@@H]1N=[N+]=[N-])OCC.[Na+] (stereo not given in full)
Control (U1 [3]): 84% | Control (U1 [4]): 121% | IC50 (CEM-SS): 53.8 µM | Control (U1 [9]): 67%

IC50 [1]: 0.03 µM
SMILES: CCCCCCCCCCCCCCCCOCC(COP(=O)(O)OC[C@H]1O[C@@H](n2cc(C)c(=O)[nH]c2=O)C[C@@H]1N=[N+]=[N-])OCC (stereo not given in full)
IC50 (CEM-SS): 35 µM

IC50 [1]: 1.56 µM
SMILES: CCCCCCCCCCCCCCCCCC(=O)NCC(COP(=O)(O)OC[C@@H]1CC[C@H](n2cnc3c(=O)[nH]cnc32)O1)OCC (stereo not given in full)
IC50 (CEM-SS): > 100 µM

IC50 [1]: 1.7 µM
SMILES: O=c1[nH]cnc2c1ncn2[C@H]1CC[C@@H](CO)O1 [DIDANOSINE]
IC50 (CEM-SS): > 100 µM

IC50 [1]: 1.4 µM
SMILES: CCCCCCCCCCCCCCCCCCOCC(COP(=O)([O-])OCC[N+](C)(C)C)OC (stereo not given) [EDELFOSINE]
IC50 (CEM-SS): 4 µM

SMILES: Cc1cn([C@H]2C[C@H](N=[N+]=[N-])[C@@H](CO)O2)c(=O)[nH]c1=O [ZIDOVUDINE]
inhibition at 0.0015 µM [11]: 70% | inhibition at 0.0007 µM [12]: 53% | inhibition at 0.006 µM [13]: 87% | inhibition at 0.003 µM [14]: 79% | Of control (U1 [15]): 90% | inhibition at 0.0003 µM [16]: 18% | inhibition at 0.012 µM [17]: 93% | IC50 (CEM-SS): 5.1 µM | Of control (U1 [18]): 101% | Of control (U1 [19]): 87%

— ChEMBL document CHEMBL1125670, “Synthesis and evaluation of novel ether lipid nucleoside conjugates for anti-HIV-1 activity” (J Med Chem, 1991)
